From US12528819B2 (priority 2016, dated 2026)

Target: T1, α5β2γ2 subtype GABAAR (Homo sapiens, UniProt P18507+P31644)
T1 construct: expressed in transfected cells
T1 sequence (P31644 32-462): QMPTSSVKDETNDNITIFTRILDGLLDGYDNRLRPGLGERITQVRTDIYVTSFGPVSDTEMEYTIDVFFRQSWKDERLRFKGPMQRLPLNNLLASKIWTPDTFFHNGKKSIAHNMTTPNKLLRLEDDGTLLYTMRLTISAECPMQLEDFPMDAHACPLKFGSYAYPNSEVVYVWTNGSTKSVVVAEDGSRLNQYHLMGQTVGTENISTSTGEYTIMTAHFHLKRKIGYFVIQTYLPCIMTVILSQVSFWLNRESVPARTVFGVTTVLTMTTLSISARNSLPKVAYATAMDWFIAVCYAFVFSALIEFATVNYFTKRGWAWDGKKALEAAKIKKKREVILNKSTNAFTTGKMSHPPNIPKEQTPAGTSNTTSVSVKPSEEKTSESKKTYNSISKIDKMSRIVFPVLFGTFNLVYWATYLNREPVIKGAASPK
T1 sequence (P47870 25-512 partner limits assumed): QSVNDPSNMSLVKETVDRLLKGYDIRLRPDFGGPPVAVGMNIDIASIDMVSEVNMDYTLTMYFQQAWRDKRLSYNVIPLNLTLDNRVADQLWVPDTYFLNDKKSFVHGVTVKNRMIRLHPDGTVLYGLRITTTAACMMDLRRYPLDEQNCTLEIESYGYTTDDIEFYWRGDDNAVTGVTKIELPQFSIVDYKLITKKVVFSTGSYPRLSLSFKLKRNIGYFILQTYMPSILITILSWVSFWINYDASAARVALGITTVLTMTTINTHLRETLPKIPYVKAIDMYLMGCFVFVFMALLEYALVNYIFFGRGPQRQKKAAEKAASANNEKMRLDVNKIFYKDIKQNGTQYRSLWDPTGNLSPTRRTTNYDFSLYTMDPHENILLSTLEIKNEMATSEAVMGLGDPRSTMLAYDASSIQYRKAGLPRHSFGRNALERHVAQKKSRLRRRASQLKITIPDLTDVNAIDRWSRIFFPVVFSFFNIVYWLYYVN
T1 sequence (P18507 40-467 limits assumed): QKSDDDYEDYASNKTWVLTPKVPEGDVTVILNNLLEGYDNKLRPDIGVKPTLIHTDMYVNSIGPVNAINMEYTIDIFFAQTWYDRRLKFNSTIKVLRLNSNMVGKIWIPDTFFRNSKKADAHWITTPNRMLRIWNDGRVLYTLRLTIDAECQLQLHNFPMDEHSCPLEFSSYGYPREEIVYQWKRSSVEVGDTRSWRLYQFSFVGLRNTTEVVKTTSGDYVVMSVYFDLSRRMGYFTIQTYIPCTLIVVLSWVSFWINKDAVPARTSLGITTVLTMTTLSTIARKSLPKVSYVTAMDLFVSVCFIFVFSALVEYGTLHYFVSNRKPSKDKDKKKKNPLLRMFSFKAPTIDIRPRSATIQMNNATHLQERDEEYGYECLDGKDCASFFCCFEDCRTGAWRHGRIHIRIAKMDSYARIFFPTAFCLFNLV
Test: Positive allosteric modulator activity: potentiation of EC20 GABA current in oocytes
Assay type: cell-based
Conditions: read-out: GABA α5 Functional Data (potentiation), @ 100 nM, reported as ranges
Procedure: (B) Positive Allosteric Modulator Activity of Test Compounds on α5β2γ2 Subtype GABAAR
On day 1, 1 ng/32 nL of GABAA α5β2γ2 cDNA was injected into one oocyte. Test starts on day 2. The cDNA injected to the oocytes was a mix of alpha, beta and gamma, their ratio is 1:1:10 (by weight) and the total weight of the mixed 3 subunits to be injected in one oocyte was 1 ng in 32 nl volume. The injected oocytes can also be tested on day 3. In such case, the cDNA amount injected to the oocytes should be reduced by 20%.
Compounds of the present invention were tested using the following procedures.
• 1). 8 oocytes were placed in 8 chambers of OpusXpress and superfused with Modified Barth's Saline (MBS) at 3 mL/min. Glass electrodes back-filled with 3M KCl (0.5-3 megaohms) were used.
Control test (Diazepam or methyl 3,5-diphenylpyridazine-4-carboxylate) • 1). New oocytes was used to run new test. • 2). […] Oocytes were washed with MBS for 5-10 min. • 4). […] Itest was divided by IGABA to obtain potentiation (%). Test Compounds at Multiple Doses • 1). Repeat the above steps 1), 2) and 3) in the control test. • 2). […] Divide Itest by IGABA to obtain potentiation (%). • 3). Discard all tested oocytes, new oocytes were used and the above steps 1) and 2) were repeated to test second concentration of the same compound. Each oocyte was used for only one concentration test for a single test compound. The steps were repeated for other test compounds.

Row | Compound | activation at 0.1 µM [%]
1 | CC(C)c1nc(-c2ncn3c2Cn2c(COc4cccc(F)c4)nnc2-c2cc(F)ccc2-3)no1 [Compound 188] | 20 to 50
2 | CC(C)c1nc(-c2ncn3c2Cn2c(COc4ccc(F)cc4)nnc2-c2cc(F)ccc2-3)no1 [Compound 189] | 20 to 50
3 | Cc1cccc(C)c1OCc1nnc2n1Cc1c(-c3noc(C(C)C)n3)ncn1-c1ccc(F)cc1-2 [Compound 190] | 5 to 20
4 | COc1ccc2c(c1)-c1nnc(COc3ccc(F)cc3)n1Cc1c(C#N)ncn1-2 [Compound 191] | 20 to 50
5 | CCc1nc(-c2ncn3c2Cc2c(Cc4ccccc4)nnn2-c2cc(OC)ccc2-3)no1 [Compound 194] | > 50
6 | CCc1nc(-c2ncn3c2Cc2c(Cc4ccc(F)cc4)nnn2-c2cc(OC)ccc2-3)no1 [Compound 195] | 20 to 50
7 | COc1ccc2c(c1)-c1nnc(COc3cccc(F)c3)n1Cc1c(C#N)ncn1-2 [Compound 196] | 20 to 50
8 | COCc1nnc2n1Cc1c(-c3nc(C)no3)ncn1-c1ccc(Cl)cc1-2 [Compound 198] | 20 to 50
9 | FC(F)=Cc1ncn2c1Cn1c(COc3ccccc3)nnc1-c1cc(Cl)ccc1-2 [Compound 199] | 20 to 50
10 | FC(F)c1ncn2c1Cn1c(COc3ccccc3)nnc1-c1cc(Cl)ccc1-2 [Compound 200] | 5 to 20
11 | Clc1ccc2c(c1)-c1nnc(COc3ccccc3)n1Cc1c(Br)ncn1-2 [Compound 202] | 20 to 50
12 | COc1ccc2c(c1)-c1nnc(COCc3cccnc3)n1Cc1c(-c3noc(C(C)C)n3)ncn1-2 [Compound 203] | 20 to 50
13 | C#Cc1ncn2c1Cn1c(COc3ccccc3)nnc1-c1cc(Cl)ccc1-2 [Compound 205] | 20 to 50
14 | COCc1nnc2n1Cc1c(-c3nc(C(C)C)no3)ncn1-c1ccc(Cl)cc1-2 [Compound 206] | 5 to 20
15 | COc1ccc2c(c1)-n1nnc(Cc3ccccc3)c1Cc1c(C#N)ncn1-2 [Compound 207] | 20 to 50
16 | COc1ccc2c(c1)-n1nnc(Cc3cccnc3)c1Cc1c(C#N)ncn1-2 [Compound 210] | 20 to 50
17 | COc1ccc2c(c1)-n1nnc(C)c1Cc1c(Br)ncn1-2 [Compound 211] | 5 to 20
18 | COc1ccc2c(c1)-n1nnc(Cc3ccccc3)c1Cc1c(Br)ncn1-2 [Compound 212] | 20 to 50
19 | COc1ccc2c(c1)-n1nnc(Cc3ccc(F)cc3)c1Cc1c(Br)ncn1-2 [Compound 213] | 20 to 50
20 | CCOCc1ncn2c1Cn1c(COC)nnc1-c1cc(Cl)ccc1-2 [Compound 215] | 5 to 20
21 | COCc1nnc2n1Cc1c(Br)ncn1-c1ccc(Cl)cc1-2 [Compound 217] | 5 to 20
22 | COc1ccc2c(c1)-n1nnc(COc3ccc(F)cc3)c1Cc1c(C#N)ncn1-2 [Compound 222] | 20 to 50
23 | COc1ccc2c(c1)-n1nnc(COc3ccccc3F)c1Cc1c(C#N)ncn1-2 [Compound 223] | 5 to 20
24 | COc1ccc2c(c1)-n1nnc(COc3ccccc3)c1Cc1c(C#N)ncn1-2 [Compound 224] | 20 to 50
25 | COc1ccc2c(c1)-n1nnc(COc3cccc(Br)c3)c1Cc1c(C#N)ncn1-2 [Compound 225] | 20 to 50
26 | N#Cc1ncn2c1Cc1c(COc3ccccc3)nnn1-c1cc(Cl)ccc1-2 [Compound 226] | 20 to 50
27 | N#Cc1ncn2c1Cc1c(COc3cccc(F)c3)nnn1-c1cc(Cl)ccc1-2 [Compound 227] | 5 to 20

Row | Compound | activation at 0.1 µM [%]
28 | Fc1ccc2c(c1)-n1cnc(Br)c1Cc1c(Cc3ccccc3)nnn1-2 [Compound 229] | 5 to 20
29 | COc1ccc2c(c1)-c1nnc(COc3ccccc3)n1Cc1c(Br)ncn1-2 [Compound 232] | 5 to 20
30 | COCc1nnc2n1Cc1c(-c3cc(C)no3)ncn1-c1ccc(Cl)cc1-2 [Compound 233] | 5 to 20
31 | C#Cc1ncn2c1Cn1c(COc3ccccc3)nnc1-c1cc(OC)ccc1-2 [Compound 236] | 5 to 20
32 | COCc1nnc2n1Cc1c(C3=NCCO3)ncn1-c1ccc(Cl)cc1-2 [Compound 238] | 20 to 50
33 | C#Cc1ncn2c1Cn1c(COc3cccnc3)nnc1-c1cc(OC)ccc1-2 [Compound 241] | 5 to 20
34 | COCc1nnc2n1Cc1c(C3=NC(c4ccccc4)CO3)ncn1-c1ccc(Cl)cc1-2 (stereo not drawn) [Compound 242] | 5 to 20
35 | COCc1nnc2n1Cc1c(C3=NC(C)CO3)ncn1-c1ccc(Cl)cc1-2 (stereo not drawn) [Compound 243] | 20 to 50
36 | COCc1nnc2n1Cc1c(-c3nc(C)co3)ncn1-c1ccc(Cl)cc1-2 [Compound 244] | 5 to 20
37 | COCc1nnc2n1Cc1c(-c3nc(-c4ccccc4)co3)ncn1-c1ccc(Cl)cc1-2 [Compound 245] | 5 to 20
38 | COCc1nnc2n1Cc1c(-c3ncco3)ncn1-c1ccc(Cl)cc1-2 [Compound 249] | 20 to 50
39 | COCc1nnc2n1Cc1c(C3=N[C@@H](c4ccccc4)CO3)ncn1-c1ccc(Cl)cc1-2 [Compound 264] | 20 to 50
40 | CC(C)OCc1nnc2n1Cc1c(C3=N[C@H](c4ccccc4)CO3)ncn1-c1ccc(Cl)cc1-2 [Compound 268] | 5 to 20
41 | CCOCc1nnc2n1Cc1c(C3=N[C@H](c4ccccc4)CO3)ncn1-c1ccc(Cl)cc1-2 [Compound 271] | > 50
42 | COCc1nnc2n1Cc1c(C#Cc3ccccc3)ncn1-c1ccc(Cl)cc1-2 [Compound 285] | 5 to 20
43 | COc1ccc2c(c1)-n1nncc1Cc1c(C3=N[C@H](c4ccccc4)CO3)ncn1-2 [Compound 290] | 20 to 50
44 | COCc1nnc2n1Cc1c(C#Cc3ccccc3C)ncn1-c1ccc(Cl)cc1-2 [Compound 293] | 20 to 50
45 | C#Cc1ccc2c(c1)-c1nnc(COC)n1Cc1c(C3=N[C@@H](c4ccccc4)CO3)ncn1-2 [Compound 301] | 5 to 20
46 | C#Cc1ccc2c(c1)-c1nnc(COC)n1Cc1c(-c3nc(-c4ccccc4)co3)ncn1-2 [Compound 302] | 5 to 20
47 | FC(F)(F)COCc1nnc2n1Cc1c(C3=N[C@@H](c4ccccc4)CO3)ncn1-c1ccc(Cl)cc1-2 [Compound 304] | 5 to 20
48 | CCOC(=O)c1ncn2c1Cn1c(COCC(F)(F)F)nnc1-c1cc(Cl)ccc1-2 [Compound 308] | 5 to 20
49 | Cc1ccccc1C#Cc1ncn2c1Cn1c(COC(C)C)nnc1-c1cc(Cl)ccc1-2 [Compound 310] | 5 to 20
50 | CCOCc1nnc2n1Cc1c(C#Cc3ccccc3C)ncn1-c1ccc(Cl)cc1-2 [Compound 311] | 5 to 20
51 | FC(F)(F)COCc1nnc2n1Cc1c(-c3nc(-c4ccccc4)co3)ncn1-c1ccc(Cl)cc1-2 [Compound 313] | 20 to 50
52 | COCc1nnc2n1Cc1c(C3=N[C@@H](c4ccccc4F)CO3)ncn1-c1ccc(Cl)cc1-2 [Compound 319] | 20 to 50
53 | COCc1nnc2n1Cc1c(C3=N[C@@H](c4ccc(F)cc4)CO3)ncn1-c1ccc(Cl)cc1-2 [Compound 320] | 20 to 50
54 | COCc1nnc2n1Cc1c(-c3nc(-c4ccccc4F)co3)ncn1-c1ccc(Cl)cc1-2 [Compound 323] | 20 to 50
